Measured values published in patent publication US20260021147A1, “COMPOSITIONS AND METHODS FOR TREATING INFLAMMATORY DISEASE” (The Regents of the University of Michigan, priority 2022, published 2026).

What was measured:
intestinal microbiota = assay: 16S rRNA sequencing of fecal and mucosal microbiome in mice; format: in vivo
Protocol: Fecal samples which were collected from patients and mice and colonic mucosal samples, which were collected from mice were weighed before DNA isolation. […] The quality and quantity of the barcoded amplicons were assessed on an Agilent 4200 TapeStation system (Agilent) and Qubit Fluorometer (Thermo Fisher Scientific), and libraries were prepared after pooling at equimolar ratios. The final libraries were purified using QIAquick gel extraction kit (28706X4, Qiagen) and sequenced with a 2×250 base pair paired-end protocol on the Illumina MiSeq platform.
For differential abundance analysis, abundances of sequences belonging to taxonomical groups were included for analysis using the Mann-Whitney U test and adjusted for multiple comparisons using the method of Benjamini-Hochberg. Paired samples were analyzed using the Wilcoxon signed rank test with adjustment for multiple comparisons.

[1] = system: allogeneic mice (B6D2F1 recipients of B6 donor cells); assay: Murine GvHD model (allo-HSCT): survival and GvHD histology; format: in vivo; settings: for severity of colonic GvHD: antibiotic in drinking water, colon collected day 20, vs control allogeneic mice
Protocol: In a murine model with a mucin-deficient mutate strain of BT, piperacillin/tazobactam was given at a concentration of 3.2 g/L in combination with vancomycin and metronidazole dosed 1.5 mg daily by oral gavage from days −16 to −12 relative to transplant.
D-(+)-xylose (X3877, Sigma-Aldrich) or D-(+)-glucose (G8270, Sigma-Aldrich) was dissolved in phosphate buffer pH 8.0 with meropenem or in water without meropenem and given at a concentration of 0.5% from days 13 to 28 after allo-HSCT.
Mice were transplanted as previously described (Hayase et al., 2017).
(§1) Pathology scores were quantified by a blinded pathologist. […] Sections were imaged using an Aperio AT2.

[2] = Short chain fatty acids profiling of mouse feces by IC-MS; format: in vivo, mice; settings: allogeneic mice, day 20
Protocol: To determine the relative abundance of short chain fatty acids in mouse feces samples, extracts were prepared and analyzed by ultra-high resolution mass spectrometry (HRMS). Fecal pellets were homogenized with a Precellys Tissue Homogenizer. Metabolites were extracted using 1 mL ice-cold 0.1% Ammonium hydroxide in 80/20 (v/v) methanol/water. Extracts were centrifuged at 17,000 g for 5 min at 4° C., and supernatants were transferred to clean tubes, followed by evaporation to dryness under nitrogen. Dried extracts were reconstituted in deionized water, and 5 μL was injected for analysis by IC-MS. IC mobile phase A (MPA; weak) was water, and mobile phase B (MPB; strong) was water containing 100 mM KOH. A Thermo Scientific Dionex ICS-5000+ system included a Thermo IonPac AS11 column (4 μm particle size, 250×2 mm) with column compartment kept at 30° C. The autosampler tray was chilled to 4° C. The mobile phase flow rate was 360 μL/min, and the gradient elution program was: 0-5 min, 1% MPB; 5-25 min, 1-35% MPB; 25-39 min, 35-99% MPB; 39-49 min, 99% MPB; 49-50, 99-1% MPB. The total run time was 50 min. To assist the desolvation for better sensitivity, methanol was delivered by an external pump and combined with the eluent via a low dead volume mixing tee. Data were acquired using a Thermo Orbitrap Fusion Tribrid Mass Spectrometer under ESI negative ionization mode at a resolution of 240,000. […]

[3] = system: BT (MDA-JAX BT001) PUL transcripts; assay: RNA sequencing of stool: PUL expression in BT; format: in vivo, Bacteroides thetaiotaomicron; settings: supplementation in meropenem-treated allogeneic mice
Protocol: Approximately 30 mg of stool was freshly collected in 700 μL of ice cold Qiazol containing 200 μL of 0.1 mm diameter Zirconia Silica beads (11079101z, BioSpec). Samples were bead beaten twice for 2 min with a 30 second interval recovery. Samples were then centrifuged at 12,000 g for 1 min and the supernatant was collected for RNA isolation using the RNeasy mini kit (74104, Qiagen). RNA was treated on column with DNase I (79254, Qiagen) to eliminate contaminating genomic DNA. RNA quantity and quality was determined using an Agilent 4200 TapeStation system (Agilent). 250 ng of total RNA from mouse stools was used to construct libraries using the Nugen Ovation Complete Prokaryotic RNA-Seq Systems (NuGen) or the Universal Prokaryotic RNA-Seq Library Preparation Kit (9367-32, Tecan) with Unique Dual Indexes (S02480-FG, Tecan), following the manufacturer's protocol. The cDNA libraries were sequenced on the Illumina MiSeq or NovaSeq 6000 system to produce either 1×300 bp single-end reads or 2×150 bp paired-end reads. […] The total reads of mouse stool samples were 950923±113406 (mean ±standard deviation) in FIG. 6A and 137623366±38865363 in FIG. 6G-H and 12G. […] Aligned mRNA expression changes were calculated using the Mann-Whitney U test in R software version 3.6.0 via RStudio version 1.2.1335. […]

[4] = system: mouse- and human-derived BT; assay: Bacterial culture of BT with or without monosaccharide; format: cell-based, Bacteroides thetaiotaomicron; settings: carbohydrate-poor media, in vitro
Protocol: Mouse-derived BT (MDA-JAX BT001), Enterococcus faecalis (MDA-JAX EF001) and Clostridium disporicum (MDA-JAX CD001), Clostridium saudiense (MDA-JAX CS001), and Lachnospiraceae unclassified (MDA-JAX LS001) were isolated and cultured from mouse stool samples suspended in 1 ml of chilled 20% anaerobic glycerol in a Whitley anaerobic chamber (10% H2, 5% CO2 and 85% N2). Human-derived BT (ATCC 29148) was purchased from ATCC. Bacterial number was quantified using a Nexcelom Cellometer cell counter with SYTO™ BC dye and propidium iodide. For measuring MICs against meropenem, bacteria were cultured on BYE plates including 5% sterilized rumen fluid (Fisher Scientific) with MIC test strips (Liofilchem™ MTS™ Meropenem [MRP] 0.016-256 μg/mL, Fisher Scientific). Bacterial growth experiments were performed in a bacterial liquid media, BYEM10, composed of a hybrid of BHI and M10 supplemented with yeast extract (Table 4). Bacteria were cultured up to 48 hours at a starting concentration of 1×10^6 bacteria/ml in BYEM10 broth (pH 7.2) with and without 5 mg/ml of porcine gastric mucin (M1778, Sigma-Aldrich) with or without 0.5 mg/ml of D-(+)-xylose (X3877), D-(+)-mannose (M8574, Sigma-Aldrich) or D-(+)-glucose (G8270). Optical densities (OD600 nm) of bacterial cultures were measured with a BioTek EPOCH 2 plate reader.

colonic mucus layer = assay: Colonic mucus thickness by PAS staining; format: in vivo, mice; settings: meropenem-treated allogeneic mice (FIG. 6, FIG. 12 titles)
Text: as §1

Structure (SMILES) | abundances of BT (intestinal microbiota; day 20, compared to meropenem-treated mice) | compositional differences between luminal and mucosal samples (intestinal microbiota; treated allogeneic mice, PERMANOVA testing) | severity of colonic GvHD [1] | fecal levels of SCFAs [2] | expression of ORF GH2_PUL89_16 [3] | overall survival ([1]; 0.5% xylose days 13 to 28, meropenem-treated allogeneic mice) | growth of mouse- and human-derived BT [4] | mucolytic activity / mucus-degrading function of BT (colonic mucus layer)
CO/N=C(\C(=O)N[C@@H]1C(=O)N2C(C(=O)[O-])=C(C[N+]3(C)CCCC3)CS[C@H]12)c1csc(N)n1 [cefepime] | significantly lower abundances of BT | loss of compositional differences | do not increase the severity of colonic GvHD | did not show substantially reduced fecal levels of SCFAs | – | – | – | –
C[C@H]1COc2c(N3CCN(C)CC3)c(F)cc3c(=O)c(C(=O)O)cn1c23 [levofloxacin] | – | – | do not increase the severity of colonic GvHD | – | – | – | – | –
O=C[C@H](O)[C@@H](O)[C@H](O)CO [xylose, D-(+)-xylose] | – | – | – | – | significantly downregulated | significantly improved the survival | augmented | suppressed
